Results: patent US20230390315A1, “COMPOSITIONS AND METHODS FOR TREATING ISCHEMIC CONDITIONS” (The Regents of the University of California, priority 2020, published 2023)

Key:
[1] = tested on: bovine choroidal microvascular endothelial cells (BCEC); experiment: BCEC proliferation assay; assay type: cell-based
Method: Proliferation assays with BCECs and BRECs were performed. Log-phase growing BCECs or BRECs (passage <10) were trypsinized, re-suspended and seeded in 96-well plates (no coating) in low-glucose DMEM supplemented with 10% bovine calf serum, 2 mM glutamine, and antibiotics (growth medium), at a density of 1200-1500 cells per well in 200 μl volume. All reagents were added at the indicated final concentrations. […] Fluorescence was measured at 530 nm excitation wavelength and 590 nm emission wavelength. The experiments were repeated at least three times. […] On each 96-well plate, untreated and VEGF-treated (10/ng/ml) wells were included to monitor plate-to-plate variations. 20% methanol or 0.05% DMSO served as negative controls. 0.05% DMSO served as negative controls when Cas was tested in these cells. Human […] and human adult […] were split into Gelatin-coated 96 wells (2000 cells per well) in low glucose DMEM containing 10% FBS. 1200 cells/well was set up for proliferation assay in low glucose media containing FBS. […] HUVEC (p7-10) were grown on gelatin-coated plate until it reached 70-80% confluency. On the day of the assay, cells were dissociated with 0.05% trypsin, which was neutralized with 0.5% FBS-containing EBM. Cells were briefly spun and then re-suspended in 0.5% FBS-media. Cells were counted and plated in 96-well, 1000 cells/well. Triplicate wells were used for each treatment. Data were collected at day 3, and then cells were fixed in 4% paraformaldehyde for 15 min before adding crystal violet. Cell-covered areas were quantified after taking pictures by Image J software.

[2] = tested on: BCEC confluent monolayers; experiment: BCEC scratch assay; assay type: cell-based, bovine; settings: 40 uM ManN or 50 ng/ml of VEGF; after 48 hours
Method: BCECs (passage 6-10) and HUVEC (passage 6-8) were used in this assay. Cells were grown until about 80% confluency in 6-well plates, washed twice with PBS and then starved in serum-free DMEM (low Glucose, Hyclone) for 5 hrs before making a “scratch” using 1 ml tip. Cell monolayers were briefly washed once with serum-free media, followed by various treatments in media containing 1% FBS. 48 hrs later, the assay was stopped by adding 2 ml 4% paraformaldehyde. 20 min later, fixed cells were stained with 1 ml Crystal Violet (Sigma). Plates were washed gently under the running tap water and air-dried before taking pictures. Images were acquired by ZEISS Discovery […] microscopy equipped with […] camera. Quantification of wound closure was done using AxioVision LE Rel.4.4 software. Six images were taken for each sample and six measurements (in pixel) were made on each image using AxioVision LE Rel.4.4 software.

VEGFR2 = experiment: Western blot of VEGFR2 molecular mass in BCECs and BRECs; assay type: cell-based, bovine; settings: BCECs and BRECs
Method: Glycerol-free PNGase F was obtained from New England Biolabs (Ipswich, MA). Briefly, BCECs were lysed with NP-40 containing proteinase inhibitors (Thermo Scientific, Waltham, MA). Lysates were cleared at 4° C. at 5000 g for 25 mins. Total protein content was measured using Pierce BCA protein assay kit (ThermoScientific). […] of protein was mixed with 10× denaturing buffer and H2O to a total volume of […]. Glycoproteins were denatured at 100° C. for 10 mins, followed by adding Glycobuffer and PNGase F. The reaction was carried out at 37° C. for 2 hr.
(§1) Cells were allowed to reach ˜80% confluency in 12-well plates. […] At various time points, plates were taken out of the incubator and kept on ice. Cell monolayers were first washed once with ice-cold PBS before lysis with 250 μl of Pierce RIPA buffer (ThermoFisher Scientific, Rockford, IL) or use 50 mM Tris-HCl (pH 7.6), 150 mM NaCl, 10% Glycerol, 1% NP-40 containing protease/Phosphatase inhibitor cocktail (100×) (Cell signaling, #5872). Lysates were collected and mixed with 4×Bolt LDS Sample Buffer (Novex, Carlsbad, CA) in the presence of Halt protease inhibitors and phosphatase inhibitor cocktail (ThermoFisher scientific, #NP0007). The samples were subjected to SDS-PAGE (Bolt 4-12% Bis-Tris Plus, Invitrogen) using Bolt MES SDS running buffer or NuPAGE 3-8% Tris-Acetate gel using Tris-Acetate SDS running buffer (Novex). HUVECs (passage 6-8) were plated in EBM-2 basal medium (Lonza) with 0.2% FBS. […] Equal amounts of protein lysates were analyzed by SDS-PAGE and blotted with the indicated antibodies. Proteins were transferred using Tris-Glycine buffer with 20% Methanol (Proteonomics grade) (Apex BioResearch Products). Membranes were first incubated with 5% milk in TBST, pH 7.6 (TEKnova, Hollister, CA), followed by blotting with primary and secondary antibodies. ECL anti-rabbit IgG, horseradish peroxidase linked whole antibody from donkey or sheep anti-mouse were obtained from GE Healthcare (UK limited). SuperSignal West Dura Extended Duration substrate was from ThermoFisher Scientific. In some cases, the same PVDF membranes were stripped by 8-min incubation in the Restore Plus Western Blot Stripping Buffer (ThermoFisher Scientific) to show total specific protein expression, followed by second stripping for β-actin expression.

Bip, CHOP and ATF-6 = experiment: Western blot of UPR responsive proteins in BCECs; assay type: cell-based, bovine; settings: growing cells deprived of growth factor supply
Method: as §1

skin wound = experiment: Skin wound healing model (splinted wound); assay type: in vivo, mouse; settings: day 4; topical 20 μg daily
Source text: The model has been previously described. Briefly, C57BL/6 female mice (8-10 weeks old) were obtained from Jackson labs (Sacramento, CA). A fresh, full-thickness punch wound (4 mm diameter) using a punch (Acu Punch, Acuderm inc. Ft. Lauderdale, FL) splinted with a sterile neoprene ring (6-mm outer diameter and 4-mm inner diameter), fastened with 5-6 sutures (4-0 nylon) under the influence of Isoflurane was created on the back of the animal in a Class II Biological Safety Cabinet. For all surgical procedures, sterile technique was followed. Buprenorphine was given subcutaneously prior to awakening from anesthesia for anticipated pain. Mice were monitored until fully awake and were housed individually to minimize damage/biting/fighting to the surgical site. […] Treatment agents were prepared in PBS, sterile-filtered and 25 μl solution was applied daily directly to a wound bed for the first 4-5 days under the influence of Isoflurane, followed by daily observation. Wound closure was monitored by regular imaging and the wound area was quantified using ImageJ (National Institutes of Health, Bethesda, MD, USA). […] Epithelial gap was measured histomorphometrically using AxioVision LE Rel.4.4 software. […] Small vessels stained positive for CD31 were counted microscopically on 10 fields (20×) taken around the wound.

What does the source list for VEGF?
fold increase in cell proliferation ([1]; 5 ng/ml VEGF): 4-5 fold; dependence of VEGF activity on glycolysis ([1]; glucose-free media): not dependent on the glycolysis pathway; closure of the scratched area compared to control [2]: significantly accelerated; effect on apparent molecular mass of VEGFR2 (VEGFR2): no effect; Bip expression (Bip, CHOP and ATF-6): not; average closure of the wound (skin wound): 66.9%
